Data on one compound can be found in article PMC7206119, “RIP1 inhibition blocks inflammatory diseases but not tumor growth or metastases” (Cell Death and Differentiation, 2019).

The structures appear in SMILES notation.

Holding throughout (assay): biochemical
What all share (parameters): DiscoverX kinase panel, active-site competition binding (KINOMEscan type), percent of control at one concentration
What all share (conditions): competition binding, percent of control

In test [1] the target is T1, BIKE (Homo sapiens, UniProt Q9NSY1).
T1 construct: gene BMP2K

In test [2] the target is DDR1 (Homo sapiens, UniProt Q08345).
Test [3] addresses T2, ERK3 (Homo sapiens, UniProt Q16659).
T2 construct: gene MAPK6

Test [4] has as its target T3, GCN2(Kin.Dom.2,S808G) (Homo sapiens, UniProt Q9P2K8, S808G).
T3 construct: gene EIF2AK4; Kin.Dom.2

In test [5] the target is INSRR (Homo sapiens, UniProt P14616).
Test [6] has as its target IRAK1 (Homo sapiens, UniProt P51617).
In test [7] the target is MAP4K5 (Homo sapiens, UniProt Q9Y4K4).
For test [8], the target named is MARK2 (Homo sapiens, UniProt Q7KZI7).
Test [9] has as its target T4, MEK3 (Homo sapiens, UniProt P46734).
T4 construct: gene MAP2K3

Test [10] concerns the target T5, MLK2 (Homo sapiens, UniProt Q02779).
T5 construct: gene MAP3K10

For test [11], the target named is MYO3B (Homo sapiens, UniProt Q8WXR4).
For test [12], the target named is T6, NIM1 (Homo sapiens, UniProt Q8IY84).
T6 construct: gene NIM1K
T6 sequence (Q8IY84 whole entry): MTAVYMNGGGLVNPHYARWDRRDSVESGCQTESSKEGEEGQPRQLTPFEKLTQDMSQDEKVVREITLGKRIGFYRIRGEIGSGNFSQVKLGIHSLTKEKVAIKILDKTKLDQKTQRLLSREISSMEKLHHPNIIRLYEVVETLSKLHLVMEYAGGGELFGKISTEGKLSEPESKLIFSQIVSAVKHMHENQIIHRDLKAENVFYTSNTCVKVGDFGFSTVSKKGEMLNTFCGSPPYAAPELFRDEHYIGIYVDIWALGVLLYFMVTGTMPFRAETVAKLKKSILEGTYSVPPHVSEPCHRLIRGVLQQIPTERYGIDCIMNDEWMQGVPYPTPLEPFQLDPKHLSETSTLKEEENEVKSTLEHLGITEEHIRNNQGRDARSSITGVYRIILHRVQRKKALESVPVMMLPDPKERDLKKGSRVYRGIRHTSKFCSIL

Test [13] addresses PIK3C2G (Homo sapiens, UniProt O75747).
Test [14] deals with PKN2 (Homo sapiens, UniProt Q16513).
The target of test [15] is RAF1 (Homo sapiens, UniProt P04049).
Test [16] has as its target SGK3 (Homo sapiens, UniProt Q96BR1).
Test [17] deals with T7, SNARK (Homo sapiens, UniProt Q9H093).
T7 construct: gene NUAK2
T7 sequence (Q9H093 whole entry): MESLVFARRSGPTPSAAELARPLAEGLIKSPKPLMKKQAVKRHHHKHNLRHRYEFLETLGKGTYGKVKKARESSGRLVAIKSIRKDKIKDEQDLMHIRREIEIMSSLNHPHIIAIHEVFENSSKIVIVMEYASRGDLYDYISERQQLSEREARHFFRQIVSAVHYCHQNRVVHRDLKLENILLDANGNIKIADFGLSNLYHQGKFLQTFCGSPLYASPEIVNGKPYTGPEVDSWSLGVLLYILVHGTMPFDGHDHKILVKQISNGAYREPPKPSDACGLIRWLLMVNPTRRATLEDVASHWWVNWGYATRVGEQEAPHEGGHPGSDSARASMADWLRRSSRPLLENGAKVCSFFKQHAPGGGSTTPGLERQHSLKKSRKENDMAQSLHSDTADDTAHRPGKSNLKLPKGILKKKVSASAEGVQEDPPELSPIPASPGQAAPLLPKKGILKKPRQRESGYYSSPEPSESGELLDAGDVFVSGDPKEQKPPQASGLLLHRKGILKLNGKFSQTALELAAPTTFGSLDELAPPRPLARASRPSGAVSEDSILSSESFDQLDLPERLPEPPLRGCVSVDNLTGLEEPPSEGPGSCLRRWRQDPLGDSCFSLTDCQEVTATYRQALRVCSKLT

The target of test [18] is SRPK3 (Homo sapiens, UniProt Q9UPE1).
Test [19] deals with TAOK2 (Homo sapiens, UniProt Q9UL54).
TAOK2, sequence (Q9UL54 whole entry): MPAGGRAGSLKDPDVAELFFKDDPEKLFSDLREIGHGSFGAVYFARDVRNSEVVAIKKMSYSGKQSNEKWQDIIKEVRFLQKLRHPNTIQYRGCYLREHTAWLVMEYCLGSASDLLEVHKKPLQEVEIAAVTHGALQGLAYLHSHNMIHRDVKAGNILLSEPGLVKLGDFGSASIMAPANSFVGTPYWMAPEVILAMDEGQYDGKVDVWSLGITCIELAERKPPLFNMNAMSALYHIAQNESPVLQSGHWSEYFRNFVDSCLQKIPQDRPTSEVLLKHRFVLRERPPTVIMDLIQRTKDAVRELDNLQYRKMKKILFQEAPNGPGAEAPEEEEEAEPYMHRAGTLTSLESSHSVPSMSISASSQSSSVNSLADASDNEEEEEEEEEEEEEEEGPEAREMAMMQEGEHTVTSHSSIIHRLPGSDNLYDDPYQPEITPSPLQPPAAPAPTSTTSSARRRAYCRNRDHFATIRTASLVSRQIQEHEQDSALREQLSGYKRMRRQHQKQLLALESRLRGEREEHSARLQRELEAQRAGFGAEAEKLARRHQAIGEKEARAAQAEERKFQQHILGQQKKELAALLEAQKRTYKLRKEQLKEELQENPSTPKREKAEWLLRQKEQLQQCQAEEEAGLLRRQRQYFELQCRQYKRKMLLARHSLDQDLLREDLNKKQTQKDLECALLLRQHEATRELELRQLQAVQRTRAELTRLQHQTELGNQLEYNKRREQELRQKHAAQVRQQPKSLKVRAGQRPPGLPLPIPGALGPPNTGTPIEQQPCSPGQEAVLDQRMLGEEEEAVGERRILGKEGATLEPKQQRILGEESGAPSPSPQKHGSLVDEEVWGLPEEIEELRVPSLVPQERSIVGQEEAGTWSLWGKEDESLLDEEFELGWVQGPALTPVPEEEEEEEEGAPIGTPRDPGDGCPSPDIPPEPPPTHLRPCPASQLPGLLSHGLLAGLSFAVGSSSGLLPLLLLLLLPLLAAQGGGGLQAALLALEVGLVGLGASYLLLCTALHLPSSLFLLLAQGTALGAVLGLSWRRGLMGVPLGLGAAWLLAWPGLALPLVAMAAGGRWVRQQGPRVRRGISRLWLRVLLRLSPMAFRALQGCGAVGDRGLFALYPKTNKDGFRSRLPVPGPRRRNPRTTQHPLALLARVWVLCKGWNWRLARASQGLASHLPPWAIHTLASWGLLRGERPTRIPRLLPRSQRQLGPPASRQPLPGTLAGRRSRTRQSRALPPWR
In test [20] the target is TSSK1B (Homo sapiens, UniProt Q9BXA7).
The target of test [21] is T8, YES (Homo sapiens, UniProt P07947).
T8 construct: gene YES1
T8 sequence (P07947 whole entry): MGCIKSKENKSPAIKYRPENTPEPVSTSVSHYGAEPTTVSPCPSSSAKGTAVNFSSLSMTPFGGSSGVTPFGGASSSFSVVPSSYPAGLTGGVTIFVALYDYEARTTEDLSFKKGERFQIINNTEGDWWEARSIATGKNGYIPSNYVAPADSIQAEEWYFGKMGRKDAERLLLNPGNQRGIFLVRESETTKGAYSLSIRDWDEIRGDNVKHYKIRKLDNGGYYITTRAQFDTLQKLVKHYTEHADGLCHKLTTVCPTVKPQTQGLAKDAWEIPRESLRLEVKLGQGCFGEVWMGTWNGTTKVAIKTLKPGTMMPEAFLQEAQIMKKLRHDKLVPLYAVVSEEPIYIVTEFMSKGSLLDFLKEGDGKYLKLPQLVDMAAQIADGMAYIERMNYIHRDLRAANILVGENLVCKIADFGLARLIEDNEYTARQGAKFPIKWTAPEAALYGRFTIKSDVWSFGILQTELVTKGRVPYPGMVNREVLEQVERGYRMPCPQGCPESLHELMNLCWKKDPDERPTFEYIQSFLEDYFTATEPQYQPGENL

PIK3C2G, sequence (O75747 whole entry): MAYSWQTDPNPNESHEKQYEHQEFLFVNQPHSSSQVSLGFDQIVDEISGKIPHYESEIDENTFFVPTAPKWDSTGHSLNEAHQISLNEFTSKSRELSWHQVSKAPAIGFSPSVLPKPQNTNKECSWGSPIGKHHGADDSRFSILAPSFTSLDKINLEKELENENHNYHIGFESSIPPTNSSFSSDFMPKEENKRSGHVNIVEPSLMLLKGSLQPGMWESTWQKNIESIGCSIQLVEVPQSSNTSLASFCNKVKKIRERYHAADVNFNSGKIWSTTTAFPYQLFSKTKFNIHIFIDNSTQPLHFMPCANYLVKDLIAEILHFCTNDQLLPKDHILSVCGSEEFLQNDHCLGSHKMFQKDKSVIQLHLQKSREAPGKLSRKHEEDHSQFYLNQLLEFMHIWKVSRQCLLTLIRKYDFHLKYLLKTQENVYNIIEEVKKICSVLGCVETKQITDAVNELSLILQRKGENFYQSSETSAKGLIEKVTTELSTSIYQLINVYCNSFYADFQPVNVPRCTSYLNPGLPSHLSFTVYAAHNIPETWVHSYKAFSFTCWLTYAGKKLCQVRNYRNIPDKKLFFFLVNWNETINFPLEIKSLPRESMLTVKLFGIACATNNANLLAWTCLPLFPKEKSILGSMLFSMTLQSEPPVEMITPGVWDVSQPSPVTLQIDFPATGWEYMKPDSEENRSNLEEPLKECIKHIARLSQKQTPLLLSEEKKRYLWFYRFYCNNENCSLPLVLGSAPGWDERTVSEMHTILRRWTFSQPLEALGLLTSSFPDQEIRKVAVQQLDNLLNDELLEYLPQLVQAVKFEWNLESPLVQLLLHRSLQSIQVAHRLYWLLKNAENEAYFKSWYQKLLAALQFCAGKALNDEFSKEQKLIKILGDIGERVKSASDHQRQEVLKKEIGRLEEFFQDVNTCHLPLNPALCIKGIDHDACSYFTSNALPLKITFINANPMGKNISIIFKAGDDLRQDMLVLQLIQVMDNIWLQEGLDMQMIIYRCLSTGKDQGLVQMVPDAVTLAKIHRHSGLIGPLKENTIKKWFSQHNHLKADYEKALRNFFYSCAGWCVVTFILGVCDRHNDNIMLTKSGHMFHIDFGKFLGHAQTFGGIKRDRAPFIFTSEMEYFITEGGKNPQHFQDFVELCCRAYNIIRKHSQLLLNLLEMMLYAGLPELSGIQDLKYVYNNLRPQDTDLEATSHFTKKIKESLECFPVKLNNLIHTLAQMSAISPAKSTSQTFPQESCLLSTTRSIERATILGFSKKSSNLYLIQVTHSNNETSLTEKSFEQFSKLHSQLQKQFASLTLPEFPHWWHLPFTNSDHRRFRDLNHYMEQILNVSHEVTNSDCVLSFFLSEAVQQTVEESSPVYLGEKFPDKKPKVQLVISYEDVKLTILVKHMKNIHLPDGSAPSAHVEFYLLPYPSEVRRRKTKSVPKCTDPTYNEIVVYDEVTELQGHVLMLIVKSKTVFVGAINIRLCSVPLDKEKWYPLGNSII
IRAK1, sequence (P51617 whole entry): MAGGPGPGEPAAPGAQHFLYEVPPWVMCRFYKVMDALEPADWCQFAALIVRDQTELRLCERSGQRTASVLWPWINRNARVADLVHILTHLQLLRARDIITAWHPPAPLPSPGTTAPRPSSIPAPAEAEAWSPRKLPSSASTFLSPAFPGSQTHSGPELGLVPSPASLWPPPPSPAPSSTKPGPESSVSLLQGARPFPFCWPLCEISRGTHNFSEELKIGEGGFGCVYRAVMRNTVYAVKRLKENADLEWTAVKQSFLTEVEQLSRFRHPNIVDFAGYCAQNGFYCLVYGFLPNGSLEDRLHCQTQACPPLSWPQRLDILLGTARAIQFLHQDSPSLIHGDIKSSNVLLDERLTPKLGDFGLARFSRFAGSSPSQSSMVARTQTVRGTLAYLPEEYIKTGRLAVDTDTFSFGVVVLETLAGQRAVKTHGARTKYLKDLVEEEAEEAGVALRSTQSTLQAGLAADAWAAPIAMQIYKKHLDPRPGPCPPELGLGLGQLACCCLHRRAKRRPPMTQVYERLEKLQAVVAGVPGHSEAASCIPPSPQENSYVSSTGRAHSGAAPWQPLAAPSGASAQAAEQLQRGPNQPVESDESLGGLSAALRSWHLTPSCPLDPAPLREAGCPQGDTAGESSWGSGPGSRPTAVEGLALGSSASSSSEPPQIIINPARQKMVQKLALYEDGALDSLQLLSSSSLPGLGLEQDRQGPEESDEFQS

Turning to `COc1cc2c(cn1)N(C)C(=O)[C@@H](NC(=O)c1nc3n(n1)[C@H](c1ccccc1)CC3)CC2` [GNE684, (S)-N-((S)-7-methoxy-1-methyl-2-oxo-2,3,4,5-tetrahydro-1H-pyrido[3,4-b]azepin-3-yl)-5-phenyl-6,7-dihydro-5H-pyrrolo[1,2-b][1,2,4]triazole-2-carboxamide], the remaining binding at 10 µM in test [1] worked out at 100%; in test [2] it was 100%; in [3], 100%; in [4], 100%; in [5], 92%; in test [6], 96%. Moreover, the remaining binding at 10 µM was 91% in [7]; 100% in test [8]; 87% in test [9]; 72% in test [10]; 89% in test [11]; 89% in [12]. For the same compound, the remaining binding at 10 µM stood at 100% in test [13]; 84% in test [14]; 77% in test [15]; 93% in test [16]; 100% in test [17]; 100% in test [18]. For the same compound, the values for the remaining binding at 10 µM in test [19], in test [20] and in test [21] were 92%, 95% and 95%, respectively.
